Measured values as given in US6555565B2, “Apoptosis inhibitor” (Takeda Chemical Industries, Ltd., priority 1997, dated 2003).

Test system: mouse fibroblast (L929 cells, IFO 50409)
Assay: TNF-α-induced apoptosis (cell death) of L929 cells, crystal violet staining of living cells
Assay type: cell-based
Conditions: test compound final concentration 1 μM, 72 hours cultivation, relative to dexamethasone (final concentration 1.1 μM) = 100
Procedure: Apoptosis (cell death) was induced by adding TNF-α to cells. The inhibitory activity of a test compound to this apoptosis was determined by using known dexamethasone having an apoptosis inhibitory activity as the standard.
Namely, 25 μl of a culture medium (PRMI-1640, produced by Nikken Seibutsu Igaku Kenkyusho, Japan) (containing 10 weight % of fetal bovine serum) was added to each well of a 96-well microplate. Then, added was 2 μl of a solution prepared by 20 volume fold dilution of dimethylformamide (in the case of Compound No. 16) or dimethylsulfoxide (in the case of Compound Nos. 2, 4, 6, 8, 13) solution of a test compound (concentration of the test compound: 1 mM) with the above culture medium.
Subsequently, 25 μl of a solution prepared by dissolving TNF-α (Genzyme, USA)(40 ng/ml culture medium) in the above culture medium, and 50 μl of a suspension (2×10^5 cells/ml) prepared by suspending mouse fibroblast (L929 cells, IFO 50409) in the above culture medium were added, and then cells were cultivated for 72 hours at 37° C. in the presence of 5% carbon dioxide in air. The final concentration of the test compound during cultivation was 1 μM.
After cultivation, the culture medium was removed from the wells by aspiration, and 50 μl of a 5% (w/v) crystal violet/70% (v/v) methanol solution was added to each well to pigment the living cells. Then the wells were washed and dried. The apoptosis inhibitory activity of the test compound was obtained by determining the optical density by using an absorptiometer [Microplate Reader Model 450, produced by Bio-Rad] at the wavelength of 570 nm.
While, the apoptosis inhibitory activity of dexamethasone was obtained in the same manner as above except that the above test compound (final concentration: 1 μM) was replaced by dexamethasone (final concentration: 1.1 μM).
Then, the apoptosis inhibitory activity of each test compounds (final concentration: 1 μM) was calculated when the apoptosis inhibitory activity of dexamethasone (final concentration: 1.1 μM) was 100.

Compound | Apoptosis inhibitory activity (%)
COc1cc(CCCC2OC(=O)NC2=O)ccc1OC(C)c1nc(-c2ccccc2)oc1C (stereo not drawn) [Compound No. 16, 5-[3-[3-methoxy-4-[1-(5-methyl-2-phenyl-4-oxazolyl)ethoxy]phenyl]propyl]-2,4-oxazolidinedione] | 71%
COc1cc(CCCC2OC(=O)NC2=O)ccc1OCc1nc(-c2ccco2)oc1C (stereo not drawn) [Compound No. 4, 5-[3-[4-[2-(2-furyl)-5-methyl-4-oxazoly]methoxy]-3-methoxyphenyllpropyl]-2,4-oxazolidinedione] | 74%
Cc1oc(-c2ccc3ccccc3c2)nc1CCOc1ccc(CCCC2OC(=O)NC2=O)cc1 (stereo not drawn) [Compound No. 2] | 70%
Cc1oc(-c2ccccc2)nc1COc1ccc(CCCC2OC(=O)NC2=O)cc1 (stereo not drawn) [Compound No. 6, 5-[3-[4-(5-methyl-2-phenyl-4-oxazolylmethoxy]phenyl]propyl]-2,4-oxazolidinedione] | 70%
Cn1nc(CCOc2ccc(CC3SC(=O)NC3=O)cc2)nc1-c1ccccc1 (stereo not drawn) [Compound No. 8, 5-[4-[2-(1-methyl-5-phenyl-1,2,4-triazol-3-yl)ethoxy]benzyl]-2,4-thiazolidinedione] | 70%
CN(CCOc1ccc(CC2SC(=O)NC2=O)cc1)c1ccccn1 (stereo not drawn) [Compound No. 13, 5-[[4-[2-(methyl-2-pyridylamino)ethoxy]phenyl]methyl]-2,4-thiazolidinedione, reference compound] | 92%
